# According to patent publication US20260199363A1, “METHOD OF TREATING CANCER IN A PATIENT WITH HEPATIC DYSFUNCTION” (priority 2023, published 2026):
# Like-named read-outs stand apart in the source and are kept apart here.
# Tests used:
# [1] = Study PKH-95032-008: Phase 1, open-label, single-dose pharmacokinetics, safety and tolerability in moderate hepatic impairment vs matched normal hepatic function; assay type: in vivo, human; settings: for Tmax: median (minimum, maximum); for Cmax, u: unbound; for half-life / fraction unbound: arithmetic mean±StD; for fraction unbound: read-out: Fu, ave; for AUC0-t, Ratio (%) of Geometric Means (Test/Reference) / Cmax, Ratio (%) of Geometric Means (Test/Reference): moderate hepatic impairment (Test) / normal hepatic function
# [2] = in vivo
# [3] = Study AG881-C-004 (INDIGO): hepatic enzyme elevation adverse events and dose modifications; assay type: in vivo, human; settings: for TEAEs leading to death, number of subjects / Treatment-related TEAEs leading to death, number of subjects: 40 mg QD, hepatic enzymes elevation SMQ
# Excerpt: For Study AG881-C-004, the inclusion criteria specified that subjects with adequate hepatic (serum total bilirubin ≤1.5× upper limit of normal (ULN); and aspartate aminotransferase [AST] or alanine aminotransferase [ALT] at or below ULN; and AP≤2.5×ULN) were eligible for enrollment.
# In the INDIGO clinical trial (Study AG881-C-004), 18.6% (31/167) of patients treated with Vorasidenib experienced ALT elevations ≥3 times the ULN and 8.4% (14/167) experienced AST elevations >3 times the ULN. Among these patients, 1.2% (2/167) had concurrent ALT or AST elevations >3 times the ULN and total bilirubin ≥2 times the ULN.
# Similarly, more subjects in the vorasidenib arm experienced treatment-related TEAEs than the placebo arm (65 [38.9%] vs. 26 [16.0%] subjects, respectively).
# Table 4. Overall Summary of Treatment-Emergent Adverse Events from SMQ (Broad Search) of Hepatic Enzymes Elevation Liver-Related Investigations, Signs and Symptoms—Glioma with Vorasidenib 40 mg QD
# Most of the TEAEs were managed within the clinical trial protocol, and discontinuations due to elevated liver enzyme effects were rare (5 subjects, 3%). The median time to resolution (TTR) for the most common (occurred in ≥2 subjects) Grade ≥3 TEAEs in subjects in the vorasidenib arm are as follows:
# The exposure-efficacy analysis used the area under the curve (AUCeot) at steady state based on the actual average dose across the treatment duration until EOT.
# For the 14 subjects with dose reductions due to hepatotoxicity AE, a swimming plot showing time on study by individual subject is provided in the Figure. The plot includes details regarding timing and duration of TEAEs leading to dose reduction, timing and duration of reduced dose, as well as disease response by Blinded Independent Central Review (BIRC) at each assessment timepoint.
# glioma = assay: Study AG881-C-004 (INDIGO): clinical response per BIRC and exposure-efficacy analysis; assay type: in vivo, human
# Excerpt: Exposure-efficacy analyses included clinical response to treatment, i.e., PFS, TTNI, OR (CR+PR+mR), CR+PR, all defined per blind independent review committee (BIRC). […] The exposure metrics were pop PK model predicted individual exposures by using post-hoc individual PK parameters and were based on the actual average dose across the treatment duration. The dose of vorasidenib used in the simulations is corrected for dose-reductions and interruptions occurring during the treatment in real life. […] The exposure-efficacy analysis used the area under the curve (AUCeot) at steady state based on the actual average dose across the treatment duration until EOT. […] For the 14 subjects with dose reductions due to hepatotoxicity AE, a swimming plot showing time on study by individual subject is provided in the Figure. The plot includes details regarding timing and duration of TEAEs leading to dose reduction, timing and duration of reduced dose, as well as disease response by Blinded Independent Central Review (BIRC) at each assessment timepoint.
# [4] = Vorasidenib plasma pharmacokinetics across doses (steady-state exposure, dose proportionality); assay type: in vivo, human
# Description: At the therapeutic dose of 40 mg QD (Formulation 2), the PopPK model predicted geometric mean AUC,ss and Cmax,ss were 3 times lower than corresponding exposure metrics at 300 mg QD (Formulation 1).
# [5] = Group A normal hepatic function, 20 mg single dose
# [6] = Group B moderate hepatic impairment, 20 mg single dose
# [7] = human, plasma, 20 mg, Group A normal hepatic function, 20 mg single dose
# [8] = human, plasma, 20 mg, Group B moderate hepatic impairment, 20 mg single dose
# [9] = 4 subjects further reduced from 20 mg QD to 10 mg QD
# [10] = 10 subjects reduced from 40 mg QD to 20 mg QD only
# [11] = 167 subjects with glioma, only PR
# [12] = 167 subjects with glioma, only PR and MR
smiles,measurement,setting,value
"C[C@@H](Nc1nc(N[C@H](C)C(F)(F)F)nc(-c2cccc(Cl)n2)n1)C(F)(F)F [vorasidenib, 6-(6-chloropyridin-2-yl)-N^2,N^4-bis((R)-1,1,1-trifluoropropan-2-yl)-1,3,5-triazine-2,4-diamine]","AUC0-t and Cmax, normal hepatic function vs moderate hepatic impairment",[1]; 20 mg single dose,similar
same,unbound AUC0-t higher in moderate hepatic impairment compared to normal hepatic function,[1]; 20 mg single dose,23%
same,"unbound plasma protein fraction, both groups compared",[1]; 20 mg single dose,similar
same,Tmax,[1]; [5],"3.000 (0.500, 4.00) (10) h"
same,"Cmax, u",[1]; [5],0.8135 (41.7) (10) ng/mL
same,Tmax,[1]; [6],"2.000 (1.00, 3.00) (9) h"
same,"Cmax, u",[1]; [6],1.104 (54.2) (9) ng/mL
same,half-life,[1]; [7],443 ± 349 h
same,fraction unbound,[1]; [7],0.0223 ± 0.00245
same,AUC(0-t),"[1]; human, plasma, 20 mg, Group A normal hepatic function, 20 mg single dose, geometric mean (geometric CV %), read-out: AUC0-t",1440 ng·h/mL
same,Cmax,"[1]; human, plasma, 20 mg, Group A normal hepatic function, 20 mg single dose, geometric mean (geometric CV %), read-out: Cmax",36.5 ng/mL
same,Tmax,"[1]; human, plasma, 20 mg, Group A normal hepatic function, 20 mg single dose, read-out: Tmax",~3 h
same,AUC(0-t),"[1]; human, plasma, 20 mg, Group A normal hepatic function, total plasma, 20 mg, read-out: AUC0-t, Geometric Mean (linear mixed effects model)",1390 ng·h/mL
same,Cmax,"[1]; human, plasma, 20 mg, Group A normal hepatic function, total plasma, 20 mg, read-out: Cmax, Geometric Mean (linear mixed effects model)",38.2 ng/mL
same,half-life,[1]; [8],360 ± 189 h
same,fraction unbound,[1]; [8],0.0289 ± 0.00354
same,AUC(0-t),"[1]; human, plasma, 20 mg, Group B moderate hepatic impairment, 20 mg single dose, geometric mean (geometric CV %), read-out: AUC0-t",1680 ng·h/mL
same,Cmax,"[1]; human, plasma, 20 mg, Group B moderate hepatic impairment, 20 mg single dose, geometric mean (geometric CV %), read-out: Cmax",38.5 ng/mL
same,Tmax,"[1]; human, plasma, 20 mg, Group B moderate hepatic impairment, 20 mg single dose, read-out: Tmax",~2 h
same,AUC(0-t),"[1]; human, plasma, 20 mg, Group B moderate hepatic impairment, total plasma, 20 mg, read-out: AUC0-t, Geometric Mean (linear mixed effects model)",1750 ng·h/mL
same,Cmax,"[1]; human, plasma, 20 mg, Group B moderate hepatic impairment, total plasma, 20 mg, read-out: Cmax, Geometric Mean (linear mixed effects model)",38.5 ng/mL
same,tolerability of single-dose administration,[1]; in vivo,tolerable
same,"AUC0-t, Ratio (%) of Geometric Means (Test/Reference)",[1]; 20 mg,126%
same,"Cmax, Ratio (%) of Geometric Means (Test/Reference)",[1]; 20 mg,101%
same,"AUC0-t, Ratio (%) of Geometric Means (Test/Reference)","[1]; 20 mg, listed as Vorasidenib",125.97%
same,"Cmax, Ratio (%) of Geometric Means (Test/Reference)","[1]; 20 mg, listed as Vorasidenib",100.66%
same,effect of moderate hepatic impairment (Child-Pugh) on total or free (unbound) exposure,[1]; single oral dose of 20 mg,did not lead to clinically relevant changes
same,"Fecal excretion, total radioactivity recovery in feces",[2],84.7%
same,"TEAEs leading to death, number of subjects","[3]; post-crossover, N = 52",0 subjects
same,"Treatment-related TEAEs leading to death, number of subjects","[3]; post-crossover, N = 52",0 subjects
same,"TEAEs leading to death, number of subjects","[3]; without crossover, N = 167",0 subjects
same,"Treatment-related TEAEs leading to death, number of subjects","[3]; without crossover, N = 167",0 subjects
same,"TEAEs (overall) leading to dose reduction, % of subjects","[3]; human, in vivo",10.8%
same,"TEAEs (overall) leading to dose reduction, number of subjects","[3]; human, in vivo",18 subjects
same,"alanine aminotransferase increased leading to dose reduction, % of subjects","[3]; human, in vivo",7.8%
same,"alanine aminotransferase increased leading to dose reduction, number of subjects","[3]; human, in vivo",13 subjects
same,alanine aminotransferase increased: % with TTR in >60 days,"[3]; human, in vivo",41.9%
same,alanine aminotransferase increased: % with TTR in ≤15 days,"[3]; human, in vivo",9.3%
same,alanine aminotransferase increased: number of subjects with TTR in >60 days,"[3]; human, in vivo",36 subjects
same,alanine aminotransferase increased: number of subjects with TTR in ≤15 days,"[3]; human, in vivo",8 subjects
same,aspartate aminotransferase increased: % with TTR in >60 days,"[3]; human, in vivo",21.4%
same,aspartate aminotransferase increased: % with TTR in ≤15 days,"[3]; human, in vivo",28.6%
same,aspartate aminotransferase increased: number of subjects with TTR in >60 days,"[3]; human, in vivo",15 subjects
same,aspartate aminotransferase increased: number of subjects with TTR in ≤15 days,"[3]; human, in vivo",20 subjects
same,"effect of exposure (AUCavg and Cmax,avg) on ALT, AST, and bilirubin (all grade and Grade ≥2)","[3]; human, in vivo",no statistically significant effect
same,median TTR for aspartate aminotransferase increased (any grade),"[3]; human, in vivo",29.0 days
same,median time to resolution (TTR) for alanine aminotransferase increased (any grade),"[3]; human, in vivo",56.0 days
same,patients with ALT elevations ≥3 times the ULN,"[3]; human, in vivo",18.6%
same,patients with ALT elevations ≥3 times the ULN (number/total),"[3]; human, in vivo",31/167
same,patients with AST elevations >3 times the ULN,"[3]; human, in vivo",8.4%
same,patients with AST elevations >3 times the ULN (number/total),"[3]; human, in vivo",14/167
same,patients with concurrent ALT or AST elevations >3 times the ULN and total bilirubin ≥2 times the ULN,"[3]; human, in vivo",1.2%
same,patients with concurrent ALT or AST elevations >3 times the ULN and total bilirubin ≥2 times the ULN (number/total),"[3]; human, in vivo",2/167
same,subjects requiring a dose reduction from 40 mg QD to 20 mg QD only,"[3]; human, in vivo",10 subjects
same,subjects requiring a second dose reduction from 20 mg QD to 10 mg QD,"[3]; human, in vivo",4 subjects
same,"subjects with at least 1 dose reduction based on the exposure data (any reason), %","[3]; human, in vivo",16.2%
same,"subjects with at least 1 dose reduction based on the exposure data (any reason), number","[3]; human, in vivo",27 subjects
same,course of liver enzyme and bilirubin increases,[3]; in vivo,transient and improved or resolved
same,subjects with best response of SD while receiving 10 mg QD,glioma; [9],Three
same,subjects with response of PD while receiving 10 mg QD,glioma; [9],1 subject
same,subjects with best response of MR by BIRC while receiving 20 mg QD,glioma; [10],1 subject
same,subjects with best response of PD by BIRC while receiving 20 mg QD,glioma; [10],one
same,subjects with best response of SD by BIRC while receiving 20 mg QD,glioma; [10],8 subjects
same,"subjects with intervention (TTNI), %",glioma; 167 subjects with glioma,11.4%
same,"subjects with intervention (TTNI), number",glioma; 167 subjects with glioma,19 subjects
same,"subjects with progression (PFS) per BIRC, %",glioma; 167 subjects with glioma,28.1%
same,"subjects with progression (PFS) per BIRC, number",glioma; 167 subjects with glioma,47 subjects
same,"subjects with CR+PR per BIRC, %",glioma; [11],1.2%
same,"subjects with CR+PR per BIRC, number",glioma; [11],2 subjects
same,"subjects with OR (CR+PR+mR) per BIRC, %",glioma; [12],10.8%
same,"subjects with OR (CR+PR+mR) per BIRC, number",glioma; [12],18 subjects
same,"effect of exposure on efficacy responses (PFS, TTNI, OR and CR+PR)","glioma; studied exposure range, Study AG881-C-004",did not affect efficacy responses
same,dose proportionality of PK,[4]; from 10 to 200 mg,dose proportional
same,time dependence of PK,[4]; in vivo,not time-dependent
